Measured values taken from patent US12410166B2, “Sulfonylamidine substituted compounds and their use as beta-lactamase inhibitors” (NINGXIA ACADEMY OF AGRICULTURE AND FORESTRY SCIENCES, priority 2021, dated 2025).
Counter-ions that a name gives are not always drawn. Like-named read-outs stand apart in the source and are kept apart here.

How the values were obtained:
Experiment in all cases: MIC by broth microdilution (antibacterial and synergistic activity)
Format in all cases: cell-based
[1] = test system: K. pneumoniae 700603 (strain 4, KPC-3, TEM-1); settings: for MIC: Klebsiella pneumoniae
Method: (§1) Compounds of the present invention alone, avibactam (AVI) alone, relebactam (REL) alone, meropenem (MER) alone, imipenem (IMI) alone, and as a combination of compounds of the present invention, or avibactam or relebactam with test antibiotic (meropenem or imipenem) was tested for antimicrobial activity by determining minimum inhibitory concentration (MIC, mg/L) using the broth microdilution method according to the guidelines of the Clinical Laboratories and Standards Institute (“Methods for Dilution Antimicrobial Susceptibility Tests for Bacterial that Grow Aerobically”, Approved standard, 7th ed., Clinical and Laboratories Standards Institute (CLSI) Document M7-A8, Wayne, Pa., USA, 2009). Meropenem or imipenem as a test antibiotic compound was dissolved in DMSO, and then diluted in microbial growth medium (Mueller-Hinton Broth II, cation adjusted) resulting in a final concentration range of 0.031-64 mg/L in serial two-fold dilution. In all cases the final DMSO concentration was less than 0.5%. Bacteria were added to 96-well microtitre plates containing the serial two-fold dilutions of the compounds; the final cell density was approximately 5×10^5 colony forming units/mL (CFU/mL). Plates were incubated at 37° C. for 18-24 hours and read visually. The MIC, i.e. the lowest concentration of the test compound that inhibited visible growth of the bacteria, was recorded. The same assay conditions were used when the compounds of present invention alone, avibactam or relebactam alone (as a control), and as a combination of the present invention each compound, or avibactam or relebactam with test meropenem or imipenem antibiotic compound was tested for minimum inhibitory concentration (MIC, mg/L). While test meropenem or imipenem was serially diluted as described above, a constant concentration of avibactam, or relebactam or the present invention each compound of 4 mg/L was used.
(§2) Bacterial strains that were used to evaluate the antimicrobial activity using the MIC determination included but were not limited to E. coli clinical isolate (strain 1, TEM-1), E. coli 8739 (strain 2, CTX-M15), K. pneumoniae clinical isolate (strain 3, SHV-1), K. pneumoniae 700603 (strain 4, KPC-3, TEM-1), E. cloacae clinical isolate (strain 5, P99), E. cloacae 700323 (strain 6, AmpC), A. baumannii clinical isolate (strain 7, OXA-23, OXA-40), A. baumannii 19606 (strain 8, OXA-24), P. aeruginosa clinical isolate (strain 9, KPC-2), P. aeruginosa 9027 (strain 10, AmpC).

[2] = test system: E. coli 8739 (strain 2, CTX-M15); settings: Escherichia coli, read-out: Antibacterial activity, MIC, inhibitor Alone
Method: as §1, §2

[3] = test system: A. baumannii clinical isolate (strain 7, OXA-23, OXA-40); settings: for MIC: Acinetobacter baumannii
Method: as §1, §2

[4] = test system: P. aeruginosa 9027 (strain 10, AmpC); settings: for MIC: Pseudomonas aeruginosa
Method: as §1, §2

[5] = test system: P. aeruginosa clinical isolate (strain 9, KPC-2); settings: for MIC: Pseudomonas aeruginosa
Method: as §1, §2

[6] = test system: K. pneumoniae clinical isolate (strain 3, SHV-1); settings: for MIC: Klebsiella pneumoniae
Method: as §1, §2

[7] = test system: E. cloacae 700323 (strain 6, AmpC); settings: for MIC: Enterobacter cloacae
Method: as §1, §2

[8] = test system: E. cloacae clinical isolate (strain 5, P99); settings: for MIC: Enterobacter cloacae
Method: as §1, §2

[9] = test system: A. baumannii 19606 (strain 8, OXA-24); settings: for MIC: Acinetobacter baumannii
Method: as §1, §2

[10] = test system: E. coli clinical isolate (strain 1, TEM-1); settings: for MIC: Escherichia coli
Method: as §1, §2

[11] = strain 4 (KPC-3, TEM-1), compound alone, no antibiotic, read-out: Antibacterial activity, MIC, inhibitor Alone
[12] = strain 7 (OXA-23/40), compound alone, no antibiotic, read-out: Antibacterial activity, MIC, inhibitor Alone
[13] = strain 10 (AmpC), compound alone, no antibiotic, read-out: Antibacterial activity, MIC, inhibitor Alone
[14] = strain 9 (KPC-2), compound alone, no antibiotic, read-out: Antibacterial activity, MIC, inhibitor Alone
[15] = strain 3 (SHV-1), compound alone, no antibiotic, read-out: Antibacterial activity, MIC, inhibitor Alone
[16] = strain 6 (AmpC), compound alone, no antibiotic, read-out: Antibacterial activity, MIC, inhibitor Alone
[17] = strain 5 (P99), compound alone, no antibiotic, read-out: Antibacterial activity, MIC, inhibitor Alone
[18] = read-out: Antibacterial activity, MIC, inhibitor Alone
[19] = strain 1 (TEM-1), compound alone, no antibiotic, read-out: Antibacterial activity, MIC, inhibitor Alone
[20] = strain 4 (KPC-3, TEM-1), inhibitor at constant 4 mg/L
[21] = strain 7 (OXA-23/40), inhibitor at constant 4 mg/L
[22] = strain 10 (AmpC), inhibitor at constant 4 mg/L
[23] = strain 9 (KPC-2), inhibitor at constant 4 mg/L
[24] = strain 3 (SHV-1), inhibitor at constant 4 mg/L
[25] = strain 6 (AmpC), inhibitor at constant 4 mg/L
[26] = strain 5 (P99), inhibitor at constant 4 mg/L
[27] = strain 1 (TEM-1), inhibitor at constant 4 mg/L

| Structure (SMILES) | MIC [1, 11] | MIC [2] | MIC [3, 12] | MIC [4, 13] | MIC [5, 14] | MIC [6, 15] | MIC [7, 16] | MIC [8, 17] | MIC [9, 18] | MIC [10, 19] | other results |
| --- | --- | --- | --- | --- | --- | --- | --- | --- | --- | --- | --- |
| N=C(NS(=O)(=O)C(F)(F)F)[C@@H]1CC[C@@H]2CN1C(=O)N2OS(=O)(=O)O [Ex. 14, (2S,5R)-7-oxo-2-(N-((trifluoromethyl)sulfonyl)carbamimidoyl)-1,6-diazabicyclo[3.2.1]octan-6-yl hydrogen sulfate] | > 64 µg/mL | > 64 µg/mL | > 64 µg/mL | > 64 µg/mL | > 64 µg/mL | > 64 µg/mL | > 64 µg/mL | > 64 µg/mL | > 64 µg/mL | > 64 µg/mL | – |
| N=C(NS(=O)(=O)c1ccc(F)cn1)[C@@H]1CC[C@@H]2CN1C(=O)N2OS(=O)(=O)O [Ex. 23, (2S,5R)-2-(N-((5-fluoropyridin-2-yl)sulfonyl)carbamimidoyl)-7-oxo-1,6-diazabicyclo[3.2.1]octan-6-yl hydrogen sulfate] | > 64 µg/mL | > 64 µg/mL | > 64 µg/mL | > 64 µg/mL | > 64 µg/mL | > 64 µg/mL | > 64 µg/mL | > 64 µg/mL | > 64 µg/mL | > 64 µg/mL | – |
| Cn1ccnc1S(=O)(=O)NC(=N)[C@@H]1CC[C@@H]2CN1C(=O)N2OS(=O)(=O)O [Ex. 19, (2S,5R)-2-(N-((1-methyl-1H-imidazol-2-yl)sulfonyl)carbamimidoyl)-7-oxo-1,6-diazabicyclo[3.2.1]octan-6-yl hydrogen sulfate] | > 64 µg/mL | > 64 µg/mL | > 64 µg/mL | > 64 µg/mL | > 64 µg/mL | > 64 µg/mL | > 64 µg/mL | > 64 µg/mL | > 64 µg/mL | > 64 µg/mL | – |
| N=C(NS(=O)(=O)N1CCC1)[C@@H]1CC[C@@H]2CN1C(=O)N2OS(=O)(=O)O [Ex. 15, (2S,5R)-2-(N-(azetidin-1-ylsulfonyl)carbamimidoyl)-7-oxo-1,6-diazabicyclo[3.2.1]octan-6-yl hydrogen sulfate] | – | > 64 µg/mL | – | – | – | – | – | – | > 64 µg/mL | – | MIC [1, 18]: > 64 µg/mL; MIC [3, 18]: > 64 µg/mL; MIC [4, 18]: > 64 µg/mL; MIC [5, 18]: > 64 µg/mL; MIC [6, 18]: > 64 µg/mL; MIC [7, 18]: > 64 µg/mL; MIC [8, 18]: > 64 µg/mL; MIC [10, 18]: > 64 µg/mL |
| N=C(NS(=O)(=O)C1CC1)[C@@H]1CC[C@@H]2CN1C(=O)N2OS(=O)(=O)[O-].[Na+] [Ex. 6, Sodium (2S,5R)-2-(N-(cyclopropylsulfonyl)carbamimidoyl)-7-oxo-1,6-diazabicyclo[3.2.1]octan-6-yl sulfate] | > 64 µg/mL | > 64 µg/mL | > 64 µg/mL | > 64 µg/mL | > 64 µg/mL | > 64 µg/mL | > 64 µg/mL | > 64 µg/mL | > 64 µg/mL | > 64 µg/mL | – |
| C[C@@H](O)[C@H]1C(=O)N2C(C(=O)O)=C(S[C@@H]3CN[C@H](C(=O)N(C)C)C3)[C@H](C)[C@H]12 [MER, meropenem, reference compound] | – | – | – | – | – | – | – | – | – | – | MIC ([1]; strain 4 (KPC-3, TEM-1), meropenem alone, read-out: MIC, MER Alone): 2 µg/mL; MIC ([3]; strain 7 (OXA-23/40), meropenem alone, read-out: MIC, MER Alone): 4 µg/mL; MIC ([4]; strain 10 (AmpC), meropenem alone, read-out: MIC, MER Alone): 4 µg/mL; MIC ([5]; strain 9 (KPC-2), meropenem alone, read-out: MIC, MER Alone): 4 µg/mL; MIC ([6]; strain 3 (SHV-1), meropenem alone, read-out: MIC, MER Alone): 4 µg/mL; MIC ([7]; strain 6 (AmpC), meropenem alone, read-out: MIC, MER Alone): 4 µg/mL; MIC ([8]; strain 5 (P99), meropenem alone, read-out: MIC, MER Alone): 4 µg/mL; MIC ([9]; read-out: MIC, MER Alone): 2 µg/mL; MIC ([10]; strain 1 (TEM-1), meropenem alone, read-out: MIC, MER Alone): 4 µg/mL |
| COC(=O)CS(=O)(=O)NC(=N)[C@@H]1CC[C@@H]2CN1C(=O)N2OS(=O)(=O)[O-].[Na+] [Ex. 2, Sodium (2S,5R)-2-(N-((2-methoxy-2-oxoethyl)sulfonyl)caramimidoyl)-7-oxo-1,6-diazabicyclo[3.2.1]octan-6-yl sulfate] | – | – | – | – | – | – | – | – | – | – | MIC of imipenem in combination with the inhibitor (IMI + inhibitor) [1, 20]: <0.125 µg/mL; MIC of meropenem in combination with the inhibitor (MER + inhibitor) [1, 20]: <0.125 µg/mL; MIC of imipenem in combination with the inhibitor (IMI + inhibitor) [3, 21]: 0.25 µg/mL; MIC of meropenem in combination with the inhibitor (MER + inhibitor) [3, 21]: <0.125 µg/mL; MIC of imipenem in combination with the inhibitor (IMI + inhibitor) [4, 22]: 1.0 µg/mL; MIC of meropenem in combination with the inhibitor (MER + inhibitor) [4, 22]: <0.125 µg/mL; MIC of imipenem in combination with the inhibitor (IMI + inhibitor) [5, 23]: 1.0 µg/mL; MIC of meropenem in combination with the inhibitor (MER + inhibitor) [5, 23]: 0.125 µg/mL; MIC of imipenem in combination with the inhibitor (IMI + inhibitor) [6, 24]: 0.25 µg/mL; MIC of meropenem in combination with the inhibitor (MER + inhibitor) [6, 24]: 0.125 µg/mL; MIC of imipenem in combination with the inhibitor (IMI + inhibitor) [7, 25]: 0.5 µg/mL; MIC of meropenem in combination with the inhibitor (MER + inhibitor) [7, 25]: <0.125 µg/mL; MIC of imipenem in combination with the inhibitor (IMI + inhibitor) [8, 26]: <0.125 µg/mL; MIC of meropenem in combination with the inhibitor (MER + inhibitor) [8, 26]: <0.125 µg/mL; MIC of meropenem in combination with the inhibitor (MER + inhibitor) ([9]; strain 8 (OXA-24), inhibitor at constant 4 mg/L): 0.5 µg/mL; MIC of imipenem in combination with the inhibitor (IMI + inhibitor) [10, 27]: <0.125 µg/mL; MIC of meropenem in combination with the inhibitor (MER + inhibitor) [10, 27]: <0.125 µg/mL |
| Cn1cnc(S(=O)(=O)NC(=N)[C@@H]2CC[C@@H]3CN2C(=O)N3OS(=O)(=O)[O-])c1.[Na+] [Ex. 7, Sodium (2S,5R)-2-(N-((1-methyl-1H-imidazol-4-yl)sulfonyl)carbamimidoyl)-7-oxo-1,6-diazabicyclo[3.2.1]octan-6-yl sulfate] | > 64 µg/mL | > 64 µg/mL | > 64 µg/mL | > 64 µg/mL | – | > 64 µg/mL | > 64 µg/mL | > 64 µg/mL | > 64 µg/mL | > 64 µg/mL | – |
| C[C@@H](O)[C@H]1C(=O)N2C(C(=O)O)=C(SCCN=CN)C[C@H]12 [IMI, imipenem, reference compound] | – | – | – | – | – | – | – | – | – | – | MIC ([1]; strain 4 (KPC-3, TEM-1), imipenem alone, read-out: MIC, IMI Alone): 4 µg/mL; MIC ([3]; strain 7 (OXA-23/40), imipenem alone, read-out: MIC, IMI Alone): 0.5 µg/mL; MIC ([4]; strain 10 (AmpC), imipenem alone, read-out: MIC, IMI Alone): 4 µg/mL; MIC ([5]; strain 9 (KPC-2), imipenem alone, read-out: MIC, IMI Alone): 2 µg/mL; MIC ([6]; strain 3 (SHV-1), imipenem alone, read-out: MIC, IMI Alone): 2 µg/mL; MIC ([7]; strain 6 (AmpC), imipenem alone, read-out: MIC, IMI Alone): 0.5 µg/mL; MIC ([8]; strain 5 (P99), imipenem alone, read-out: MIC, IMI Alone): 4 µg/mL; MIC ([9]; read-out: MIC, IMI Alone): 2 µg/mL; MIC ([10]; strain 1 (TEM-1), imipenem alone, read-out: MIC, IMI Alone): 0.5 µg/mL |
